From patent US4514330A, “Carbon-7-substituted atinomycin D analogue” (Trustees of Boston University, priority 1983, dated 1985)
In brackets after ≈: the same amount, converted by molar mass.

Assays:
[1] = In vivo metabolic transformation and urinary excretion; set-up: species or system rat; details: metabolites as conjugates of 4b
Experimental: The therapeutic indexes of both 3b and 4b in qd 1-4 and q4d 1, 5, 9 schedules of treatment are calculated and expressed in Table IV. […] These and other unidentified polar metabolites are excreted at about two to three times the rate of AMD in rat urine. This process of in vivo metabolic transformation and fast excretion appears to play a major role in reducing the in vivo toxicity factor of 3b and 4b.

DNA [2] = assay: Thermal denaturation of DNA (ΔTm), stabilization of DNA helical structure on drug binding; set-up: species or system calf thymus; details: for DNA melting profile / ΔTm character of the DNA complex: thermal denaturation, words
Experimental: Thermal denaturation studies were carried out according to the procedure described in J. Med. Chem., Vol. 24, p. 1052 (1981). The ΔTm values in Table II give a measure of stabilization of DNA helical structure as a consequence of drug binding.
^a ΔTm = m of DNAdrug complex minus m of DNA.
Concentraiton of drug, 1.4 × 10^-4 M; of DNA (P), 1.4 ×
10^-3 M in 0.01 M phosphate buffer (pH 7.0), 5 × 10^-3 M in
EDTA and 5% dimethyl sulfoxide.
^d Highest dose tested. These values are derived at high temperatur
(67°-75° C.) and may not always correlate with the results
of other DNA-binding studies (e.g., absorptiometric or circular dichroic).
Melting points were obtained with a Thomas-Hoover melting point apparatus at a heating rate of 2° C./min. Column chromatography was accomplished with silica gel powder (Baker No. 3405, 60-20 mesh) or acid alumina (Woelm grade 1). Limited gel-filtration work was done on Sephadex LH-20, particle size 25-100 μm (Pharmacia Fine Chemicals). Thin-layer chromatography was performed on silica gel plates (E. M. Laboratories, Inc.). Solvent systems used were (A) butanol-formic acid-H2 O (75:13:12), (B) EtOAc-acetone (3:1), and (C) Cifferri, the organic phase of the mixture EtOAc-MeOH-H2 O (20:1:20). High-performance liquid chromatography was carried out on a Varian Model 5020 gradient liquid chromatograph equipped with CD-111L chromatography data system and fitted with Varian reversed-phase C18 column with isocratic solvent systems, CH3 -CN-5 mM NH4 OAc buffer, pH 6.4 (68:32 or 62:38), pressure 80-140 atm, flow rate 1.5 mL/min, with UV-visible variable and fixed wavelength dual detectors at 254 and 466 nm. Spectra were determined on the following instruments: IR spectra were obtained with a Perkin-Elmer Model 237 Infra Cord with KBr micropellets or chloroform solutions; UV-visible spectra were obtained on a Gilford 250 spectrophotometer, which, with the addition of a base-line reference compensator (Analog Multiplexer 6064) and thermoprogrammer, auto four cell programmer and thermoelectric cell holder 2577, was used to obtain thermal denaturation curves; NMR spectra were obtained on a JOEL FQ-90-90MHZ spectrometer equipped with Fourier transform; and CD spectra were obtained on a Cary 61 spectrophotometer. All elemental analyses were within ±0.4% of the theoretical values. Actinomycin D, batch no. NCS 3053, lot L554651-0-10, was provided by Natural Products Branch, National Cancer Institute, Silver Spring, Md. Calf thymus DNA type 1 was purchased from Sigma Chemical Co.

[3] = test system: human lymphoblastic leukemic cells (CCRF-CEM); assay: In vitro growth-inhibitory activity against human lymphoblastic leukemic cells (CCRF-CEM) in log phase; format: cell-based; details: for IC50: Homo sapiens, final growth medium contained 1% Me2SO, log phase, read-out: ID50 (in vitro growth inhibition, CCRF-CEM)
Experimental: ^b Using human lymohoblastic leukemia cells in logplastic growth.
Compounds were dissolved in Me2 So medium, final growth medium

DNA [4] = assay: DNA-binding mode, covalent and noncovalent (statements)

| Compound | in vivo metabolic transformation [1] | DNA melting profile / ΔTm character of the DNA complex (DNA [2]) | IC50 [3] | times more cytotoxic than AMD ([3]; vs AMD) | covalent binding to DNA (DNA [4]; 37° C. or higher, or longer incubation (~20 h)) | DNA-binding property relative to AMD (DNA [4]; ambient temperature) | Tm (ΔTm = Tm of DNA-drug complex minus Tm of DNA) (DNA [2]; drug 1.4 × 10^-4 M, DNA (P) 1.4 × 10^-3 M, 0.01 M phosphate buffer pH 7.0, EDTA, 5% dimethyl sulfoxide) | times less cytotoxic than AMD ([3]; vs AMD) |
| --- | --- | --- | --- | --- | --- | --- | --- | --- |
| Cc1c2oc3c(C)c(OCC4CO4)cc(C(=O)N[C@@H]4C(=O)N[C@H](C(C)C)C(=O)N5CCC[C@H]5C(=O)N(C)CC(=O)N(C)[C@@H](C(C)C)C(=O)O[C@@H]4C)c3nc-2c(C(=O)N[C@@H]2C(=O)N[C@H](C(C)C)C(=O)N3CCC[C@H]3C(=O)N(C)CC(=O)N(C)[C@@H](C(C)C)C(=O)O[C@@H]2C)c(N)c1=O (some centres unmarked) [Compound 3b, 7-(2,3-Epoxypropoxy)actinomycin D] | transformed in vivo to highly polar metabolites | very broad | 0.009 µg/mL (≈ 0.00678 µM) | about sevenfold | can bind covalently to DNA | closely parallel to AMD | – | – |
| Cc1c2oc3c(C)c(OCC(O)CO)cc(C(=O)N[C@@H]4C(=O)N[C@H](C(C)C)C(=O)N5CCC[C@H]5C(=O)N(C)CC(=O)N(C)[C@@H](C(C)C)C(=O)O[C@@H]4C)c3nc-2c(C(=O)N[C@@H]2C(=O)N[C@H](C(C)C)C(=O)N3CCC[C@H]3C(=O)N(C)CC(=O)N(C)[C@@H](C(C)C)C(=O)O[C@@H]2C)c(N)c1=O (some centres unmarked) [Compound 4b, 7-(2,3-Dihydroxypropoxy) actinomycin D] | transformed in vivo to highly polar metabolites | sharp and smooth | 0.085 µg/mL (≈ 0.0632 µM) | – | – | – | 5.1 ± 0.15 °C | about 1.5 times |
